Laboratory results taken from patent publication US20200129524A1, “PERSONALIZED CONTRACEPTIVE FORMULATIONS” (Agile Therapeutics, Inc., priority 2017, published 2020).

Key:
healthy women = assay: Statistical (quadratic regression) analysis of LNG required dose with confidence limits; assay type: in vivo; design: dose required: unit: μg; details: for Daily LNG Required Dose, 1.5% Pregnancy Rate Dose / Daily LNG Required Dose, 3% Pregnancy Rate Dose: EE 30 μg; for level of LNG equivalent: women with body weight of over 200 pounds, 30 μg EE per day
Text: Z represents the applicable coefficient to obtain a desired level of confidence (e.g. a coefficient of two would imply a 95.5% confidence level and a coefficient of three would imply a 99.7% confidence level). The other variables are the same as indicated above. For example, the dose required for a 150 pound person assuming a 95% confidence level would be determined as follows: […]
Table 7 and FIG. 6 summarize the maximum and the minimum dose of levonorgestrel levels required at the 95.5% level of confidence (two standard deviation units, i.e., two σ) for varying woman BMI categories.
Table 7a and FIG. 6a summarize the maximum and the minimum dose of levonorgestrel levels required at the 68% level of confidence (one standard deviation unit, i.e., one σ) for varying woman BMI categories.
A review of the data points associated with Tables 4 and 5 reveal again a relationship which could be linear or quadratic. Again, since the data has substantial variability in the individual points a statistical analysis of the data was performed. The applicable linear and quadratic equations had correlation coefficients R2 of 0.73 for both 1.5 and 3% pregnancy rates. The standard error for the 1.5% pregnancy rate (linear VS quadratic) as well as the 3% pregnancy rate (linear versus quadratic) was within 10 micrograms of each other. […] We chose to draw FIGS. 4a and 4b based on the quadratic equations, so as to have an easier comparison to the corresponding body weight lines in FIGS. 3a and 3b.
As indicated above the implied equation is shown below, where the symbols Y and X are the same as presented above. The correlation coefficient R2 is 0.73 and the standard error 94.3 micrograms.
The correlation coefficient, R2 is 0.73 and the standard error 46.8. The above equation can be modified to provide a 95.5% confidence level as follows
Table 7 and FIG. 6 summarize the maximum and minimum dose of levonorgestrel levels required at the 95% confidence for varying woman BMI categories as determined from the modified equations described above.
Therefore another practical approach is to treat all women with body weight of over 200 pounds with the same formulations. For example for women co-administered 30 μg EE per day, the level of LNG equivalent would be 350 μg per day (for the 1.5% pregnancy level), and 200 μg per day (for the 3% pregnancy level). An intermediate level of 260 μg per day can also be prepared.

[1] = cited from earlier work
[2] = BMI >17.5 < 22.5, 68% confidence level, 30 μg EE
[3] = BMI >17.5 < 22.5, 95.5% confidence level, 30 μg EE
[4] = BMI >22.5 < 27.5, 68% confidence level, 30 μg EE
[5] = BMI >22.5 < 27.5, 95.5% confidence level, 30 μg EE
[6] = BMI >27.5 < 32.5, 68% confidence level, 30 μg EE
[7] = BMI >27.5 < 32.5, 95.5% confidence level, 30 μg EE
[8] = BMI >32.5 < 37.5, 68% confidence level, 30 μg EE
[9] = BMI >32.5 < 37.5, 95.5% confidence level, 30 μg EE
[10] = BMI >37.5 < 42.5, 68% confidence level, 30 μg EE
[11] = BMI >37.5 < 42.5, 95.5% confidence level, 30 μg EE
[12] = BMI >42.5 < 47.5, 68% confidence level, 30 μg EE
[13] = BMI >42.5 < 47.5, 95.5% confidence level, 30 μg EE
[14] = BMI >47.5 < 52.5, 68% confidence level, 30 μg EE
[15] = BMI >47.5 < 52.5, 95.5% confidence level, 30 μg EE
[16] = weight 90 to ≤120, 68% confidence level
[17] = weight 90 to ≤120, 95.5% confidence level
[18] = weight 120 to ≤150, 68% confidence level
[19] = weight 120 to ≤150, 95.5% confidence level
[20] = weight 150 to ≤180, 68% confidence level
[21] = weight 150 to ≤180, 95.5% confidence level
[22] = weight 180 to ≤210, 68% confidence level
[23] = weight 180 to ≤210, 95.5% confidence level
[24] = weight 210 to ≤240, 68% confidence level
[25] = weight 210 to ≤240, 95.5% confidence level
[26] = weight 240 to ≤270, 68% confidence level
[27] = weight 240 to ≤270, 95.5% confidence level
[28] = weight 270+, 68% confidence level
[29] = weight 270+, 95.5% confidence level

Q: For `C#C[C@]1(O)CC[C@H]2[C@@H]3CCC4=CC(=O)CC[C@@H]4[C@H]3CC[C@@]21CC` [LNG, levonorgestrel], which dose required (healthy women; 25 BMI woman, 95% confidence level, 3% pregnancy rate) is on record?
A: 26

Q: And the “LNG daily dosage, high boundary value” (healthy women; 27.5 BMI woman, 95.5% confidence, pregnancy rate of 1.5%)?
A: 430 microgram

Q: What about the “daily dose, low boundary value” (healthy women; 150 pound person, 95.5% confidence, 3 pregnancies per 100 woman years, 30 μg EE) of the same molecule?
A: 62.4 µg

Q: And the “daily dose, high boundary value” (healthy women; 150 pound person, 95.5% confidence, pregnancy rate of 1.5%, 30 μg EE)?
A: 302 µg

Q: And the “LNG Daily Required Dose, 1.5% Pregnancy Rate” value (healthy women; [2])?
A: 283 µg

Q: And the “LNG Daily Required Dose, 3% Pregnancy Rate” value (healthy women; [2])?
A: 47 µg

Q: And the “LNG Daily Required Dose, 1.5% Pregnancy Rate” value (healthy women; [3])?
A: 378 µg

Q: And the “LNG Daily Required Dose, 3% Pregnancy Rate” value (healthy women; [3])?
A: 0.1 µg

Q: And the “LNG Daily Required Dose, 1.5% Pregnancy Rate” value (healthy women; [4])?
A: 335 µg

Q: And the “LNG Daily Required Dose, 3% Pregnancy Rate” value (healthy women; [4])?
A: 72 µg

Q: And the “LNG Daily Required Dose, 1.5% Pregnancy Rate” value (healthy women; [5])?
A: 430 µg

Q: And the “LNG Daily Required Dose, 3% Pregnancy Rate” value (healthy women; [5])?
A: 26 µg

Q: What about the “LNG Daily Required Dose, 1.5% Pregnancy Rate” value (healthy women; [6]) of the same molecule?
A: 390 µg

Q: What about the “LNG Daily Required Dose, 3% Pregnancy Rate” value (healthy women; [6]) of the same molecule?
A: 99 µg

Q: And the “LNG Daily Required Dose, 1.5% Pregnancy Rate” value (healthy women; [7])?
A: 484 µg

Q: What about the “LNG Daily Required Dose, 3% Pregnancy Rate” value (healthy women; [7]) of the same molecule?
A: 52 µg

Q: And the “LNG Daily Required Dose, 1.5% Pregnancy Rate” value (healthy women; [8])?
A: 447 µg

Q: And the “LNG Daily Required Dose, 3% Pregnancy Rate” value (healthy women; [8])?
A: 127 µg

Q: And the “LNG Daily Required Dose, 1.5% Pregnancy Rate” value (healthy women; [9])?
A: 541 µg

Q: What about the “LNG Daily Required Dose, 3% Pregnancy Rate” value (healthy women; [9]) of the same molecule?
A: 80 µg

Q: And the “LNG Daily Required Dose, 1.5% Pregnancy Rate” value (healthy women; [10])?
A: 507 µg

Q: And the “LNG Daily Required Dose, 3% Pregnancy Rate” value (healthy women; [10])?
A: 157 µg

Q: What about the “LNG Daily Required Dose, 1.5% Pregnancy Rate” value (healthy women; [11]) of the same molecule?
A: 601 µg

Q: And the “LNG Daily Required Dose, 3% Pregnancy Rate” value (healthy women; [11])?
A: 110 µg

Q: And the “LNG Daily Required Dose, 1.5% Pregnancy Rate” value (healthy women; [12])?
A: 569 µg

Q: And the “LNG Daily Required Dose, 3% Pregnancy Rate” value (healthy women; [12])?
A: 187 µg

Q: And the “LNG Daily Required Dose, 1.5% Pregnancy Rate” value (healthy women; [13])?
A: 663 µg

Q: And the “LNG Daily Required Dose, 3% Pregnancy Rate” value (healthy women; [13])?
A: 140 µg

Q: And the “LNG Daily Required Dose, 1.5% Pregnancy Rate” value (healthy women; [14])?
A: 633 µg

Q: And the “LNG Daily Required Dose, 3% Pregnancy Rate” value (healthy women; [14])?
A: 219 µg

Q: What about the “LNG Daily Required Dose, 1.5% Pregnancy Rate” value (healthy women; [15]) of the same molecule?
A: 728 µg

Q: What about the “LNG Daily Required Dose, 3% Pregnancy Rate” value (healthy women; [15]) of the same molecule?
A: 172 µg

Q: And the “Daily LNG Required Dose, 1.5% Pregnancy Rate Dose” value (healthy women; [16])?
A: 171 µg/day

Q: And the “Daily LNG Required Dose, 3% Pregnancy Rate Dose” value (healthy women; [16])?
A: 41 µg/day

Q: What about the “Daily LNG Required Dose, 1.5% Pregnancy Rate Dose” value (healthy women; [17]) of the same molecule?
A: 215 µg/day

Q: What about the “Daily LNG Required Dose, 3% Pregnancy Rate Dose” value (healthy women; [17]) of the same molecule?
A: 19 µg/day

Q: What about the “Daily LNG Required Dose, 1.5% Pregnancy Rate Dose” value (healthy women; [18]) of the same molecule?
A: 258 µg/day

Q: And the “Daily LNG Required Dose, 3% Pregnancy Rate Dose” value (healthy women; [18])?
A: 84 µg/day

Q: And the “Daily LNG Required Dose, 1.5% Pregnancy Rate Dose” value (healthy women; [19])?
A: 302 µg/day

Q: What about the “Daily LNG Required Dose, 3% Pregnancy Rate Dose” value (healthy women; [19]) of the same molecule?
A: 62 µg/day

Q: What about the “Daily LNG Required Dose, 1.5% Pregnancy Rate Dose” value (healthy women; [20]) of the same molecule?
A: 331 µg/day

Q: What about the “Daily LNG Required Dose, 3% Pregnancy Rate Dose” value (healthy women; [20]) of the same molecule?
A: 120 µg/day

Q: And the “Daily LNG Required Dose, 1.5% Pregnancy Rate Dose” value (healthy women; [21])?
A: 375 µg/day

Q: And the “Daily LNG Required Dose, 3% Pregnancy Rate Dose” value (healthy women; [21])?
A: 98 µg/day

Q: And the “Daily LNG Required Dose, 1.5% Pregnancy Rate Dose” value (healthy women; [22])?
A: 389 µg/day

Q: What about the “Daily LNG Required Dose, 3% Pregnancy Rate Dose” value (healthy women; [22]) of the same molecule?
A: 148 µg/day

Q: And the “Daily LNG Required Dose, 1.5% Pregnancy Rate Dose” value (healthy women; [23])?
A: 433 µg/day

Q: What about the “Daily LNG Required Dose, 3% Pregnancy Rate Dose” value (healthy women; [23]) of the same molecule?
A: 126 µg/day

Q: What about the “Daily LNG Required Dose, 1.5% Pregnancy Rate Dose” value (healthy women; [24]) of the same molecule?
A: 432 µg/day

Q: And the “Daily LNG Required Dose, 3% Pregnancy Rate Dose” value (healthy women; [24])?
A: 169 µg/day

Q: What about the “Daily LNG Required Dose, 1.5% Pregnancy Rate Dose” value (healthy women; [25]) of the same molecule?
A: 476 µg/day

Q: And the “Daily LNG Required Dose, 3% Pregnancy Rate Dose” value (healthy women; [25])?
A: 147 µg/day

Q: And the “Daily LNG Required Dose, 1.5% Pregnancy Rate Dose” value (healthy women; [26])?
A: 459 µg/day

Q: What about the “Daily LNG Required Dose, 3% Pregnancy Rate Dose” value (healthy women; [26]) of the same molecule?
A: 183 µg/day

Q: What about the “Daily LNG Required Dose, 1.5% Pregnancy Rate Dose” value (healthy women; [27]) of the same molecule?
A: 503 µg/day

Q: And the “Daily LNG Required Dose, 3% Pregnancy Rate Dose” value (healthy women; [27])?
A: 161 µg/day

Q: What about the “Daily LNG Required Dose, 1.5% Pregnancy Rate Dose” value (healthy women; [28]) of the same molecule?
A: 472 µg/day

Q: What about the “Daily LNG Required Dose, 3% Pregnancy Rate Dose” value (healthy women; [28]) of the same molecule?
A: 189 µg/day

Q: And the “Daily LNG Required Dose, 1.5% Pregnancy Rate Dose” value (healthy women; [29])?
A: 516 µg/day

Q: And the “Daily LNG Required Dose, 3% Pregnancy Rate Dose” value (healthy women; [29])?
A: 167 µg/day

Q: And the “level of LNG equivalent” value (healthy women; 1.5% pregnancy level)?
A: 350 μg per day

Q: And the “level of LNG equivalent” value (healthy women; 3% pregnancy level)?
A: 200 μg per day

Q: What about the “increase of free LNG circulating in the plasma” value ([1]; for every 10 μg per day of EE delivered) of the same molecule?
A: 300 picograms per ml

Q: And the “approximate steady state level of LNG” value ([1]; plasma)?
A: ~1500 picograms LNG per ml
